Values joined by “and” are separate entries in the source; they are usually repeats but may differ in a detail not shown here. Equal values may be shown once. Read-outs that look alike come from different tables or passages of the source.
What was measured:
Pyrenophora teres = assay: In vivo preventive test on Pyrenophora teres (barley); conditions: 500 ppm of active ingredient, evaluated 7-9 days after inoculation
Experimental: (§1) Solvent: 49 parts by weight of N,N-dimethylformamide Emulsifier: 1 part by weight of alkylaryl polyglycol ether To produce a suitable preparation of active compound, 1 part by weight of active compound is mixed with the stated amounts of solvent and emulsifier, and the concentrate is diluted with water to the desired concentration. To test for preventive activity, young plants are sprayed with the preparation of active compound at the stated rate of application. One day after this treatment, the plants are inoculated with an aqueous spore suspension of Pyrenophora teres.

[1] = tested on: aflatoxines produced by Aspergillus parasiticus; assay: microbe, parasite or virus in culture; assay type: cell-based
Aspergillus parasiticus = assay: microbe, parasite or virus in culture; assay type: cell-based
Alternaria solani = assay: In vivo preventive test on Alternaria solani (tomato); conditions: 500 ppm of active ingredient, evaluated 7 days after inoculation
Experimental: as §1, with “Alkylarylpolyglycolether” for “alkylaryl polyglycol ether”, “Alternaria solani.” for “Pyrenophora teres.”

[2] = log P by HPLC on reversed-phase column (EEC Directive 79/831 Annex V.A8); assay type: physicochemical
Experimental: In table 1, the log P values were determined in accordance with EEC Directive 79/831 Annex V.A8 by HPLC (High Performance Liquid Chromatography) on a reversed-phase column (C18), using the method described below: Temperature: 40° C.; […]

Row | Compound | Efficacy (Pyrenophora teres) [%] | % Inhibition of Aflatoxin at 50 μM [1] [%] | % Inhibition of fungal growth at 50 μM (Aspergillus parasiticus) [%] | Efficacy (Alternaria solani) [%] | logP [2] | % Inhibition of fungal growth at 50 μM (Aspergillus parasiticus; 50 µM) [%] | logP ([2]; mixture of two or more isomers, one value per isomer, HPLC reversed-phase C18, 40° C., 0.1% aqueous formic acid and acetonitrile)
1 | CC(CCc1ccc(Cl)cc1Cl)N(C(=O)c1c(C(F)F)nn(C)c1Cl)C1CC1 (stereo not shown) [Example 183] | 100 | 82 | 79 | 95 | 4.72 | – | –
2 | CCC(C)C(C)N(C(=O)c1c(C(F)F)nn(C)c1Cl)C1CC1 (stereo not shown) [Example 303] | 100 | 100 | 90 | 80 | 3.52 | – | –
3 | CC(C)CC(C)C1CCCC1NC(=O)c1c(C(F)F)nn(C)c1F (single isomer, unassigned) [Example 317] | – | 100 | – | – | 4.22 isomer B | 90 | –
4 | CCC(COc1cc(Cl)cc(Cl)c1)NC(=O)c1c(C(F)F)nn(C)c1F (racemic) [Example 123] | 100 | 100 | 96 | 95 | 4.04 | – | –
5 | CCC(CCc1sccc1C)NC(=O)c1c(C(F)F)nn(C)c1Cl (stereo not shown) [Example 78] | – | 83 | 65 | – | 3.48 | – | –
6 | CN(CCCc1ccccc1Cl)C(=O)c1c(C(F)F)nn(C)c1F [Example 142] | 95 | 100 | 84 | 100 | 3.06 | – | –
7 | CC(COc1cc(Cl)cc(Cl)c1)NC(=O)c1c(C(F)F)nn(C)c1F (racemic) [Example 121] | 100 | 100 | 98 | 90 | 3.72 | – | –
8 | CN(C(=O)c1c(C(F)F)nn(C)c1F)C(CSCc1ccccc1)C1CC1 (stereo not shown) [Example 225] | – | 100 | 85 | 95 | 3.46 | – | –
9 | Cn1nc(C(F)F)c(C(=O)NC(COc2ccc(Cl)cc2Cl)C2CC2)c1F (stereo not shown) [Example 193] | 94 | 100 | 92 | 95 | 3.92 | – | –
10 | CCC(COc1cccc2ccccc12)NC(=O)c1c(C(F)F)nn(C)c1F (stereo not shown) [Example 222] | 90 | 91 | 78 | 90 | 3.71 | – | –
11 | CC(COc1ccc(Cl)cc1Cl)NC(=O)c1c(C(F)F)nn(C)c1Cl (stereo not shown) [Example 190] | 95 | 88 | 77 | 90 | 3.76 | – | –
12 | Cn1nc(C(F)F)c(C(=O)NCCOc2c(Cl)cc(Cl)cc2Cl)c1F [Example 202] | 80 | 100 | 84 | – | 3.60 | – | –
13 | CC(COc1ccc(Cl)cc1Cl)NC(=O)c1c(C(F)F)nn(C)c1F (stereo not shown) [Example 189] | 100 | 100 | 94 | 90 | 3.58 | – | –
14 | CC(CCc1cc(Cl)cc(Cl)c1)NC(=O)c1c(C(F)F)nn(C)c1Cl (stereo not shown) [Example 119] | – | 95 | 77 | – | 4.01 | – | –
15 | Cn1nc(C(F)F)c(C(=O)N(C[Si](C)(C)Cc2cc(Cl)cc(Cl)c2)C2CC2)c1Cl [Example 292] | – | 100 | 86 | – | 5.14 | – | –
16 | Cn1nc(C(F)F)c(C(=O)NC(C)(C)CCc2cc(Cl)cc(Cl)c2)c1Cl [Example 125] | 100 | 96 | 76 | 95 | 4.64 | – | –
17 | CCC1CCCCC1CNC(=O)c1c(C(F)F)nn(C)c1F (stereo not shown) [Example 364] | 80 | 99 | 81 | 95 | 3.49 | – | –
18 | Cc1ccsc1CCC(C)NC(=O)c1c(C(F)F)nn(C)c1Cl (stereo not shown) [Example 76] | – | 100 | 83 | – | 3.17 | – | –
19 | CC(CCc1ccc(Cl)cc1Cl)NC(=O)c1c(C(F)F)nn(C)c1Cl (stereo not shown) [Example 185] | – | 100 | 89 | – | 3.99 | – | –
20 | CCC(CCc1sccc1C)NC(=O)c1c(C(F)F)nn(C)c1F (stereo not shown) [Example 79] | – | 100 | 93 | – | 3.31 | – | –
21 | CN(C(=O)c1c(C(F)F)nn(C)c1F)C(COc1ccccc1Cl)C1CC1 (racemic) [Example 145] | 70 | – | – | 70 | 3.44 | – | –

Row | Compound | Efficacy (Pyrenophora teres) [%] | % Inhibition of Aflatoxin at 50 μM [1] [%] | % Inhibition of fungal growth at 50 μM (Aspergillus parasiticus) [%] | Efficacy (Alternaria solani) [%] | logP [2] | % Inhibition of fungal growth at 50 μM (Aspergillus parasiticus; 50 µM) [%] | logP ([2]; mixture of two or more isomers, one value per isomer, HPLC reversed-phase C18, 40° C., 0.1% aqueous formic acid and acetonitrile)
22 | CC(CCc1cc(Cl)cc(Cl)c1)NC(=O)c1c(C(F)F)nn(C)c1F (stereo not shown) [Example 120] | – | 100 | 100 | – | 3.83 | – | –
23 | CC(CCc1cc(Cl)ccc1Cl)NC(=O)c1c(C(F)F)nn(C)c1Cl (stereo not shown) [Example 171] | 100 | – | – | 95 | 3.87 | – | –
24 | CC(COc1ccccc1)N(C)C(=O)c1c(C(F)F)nn(C)c1F (stereo not shown) [Example 16] | 90 | – | – | 90 | 2.62 | – | –
25 | Cn1nc(C(F)F)c(C(=O)NCCOc2cc(Cl)cc(Cl)c2)c1F [Example 117] | 78 | 99 | 81 | – | 3.35 | – | –
26 | Cn1nc(C(F)F)c(C(=O)NC(C)(C)CCc2ccc(Cl)c(Cl)c2)c1F [Example 134] | – | 100 | 79 | – | 4.21 | – | –
27 | Cn1nc(C(F)F)c(C(=O)NC(COc2ccccc2)C2CC2)c1F (stereo not shown) [Example 19] | 89 | – | – | 95 | 3.06 | – | –
28 | Cc1cccc(C)c1CC(C)CNC(=O)c1c(C(F)F)nn(C)c1Cl (racemic) [Example 149] | 95 | – | – | 90 | 3.63 | – | –
29 | Cn1nc(C(F)F)c(C(=O)NC(C)(C)CCc2cccc(Cl)c2)c1Cl [Example 83] | 95 | – | – | 95 | 4.01 | – | –
30 | CSC1CCCCC1N(C(=O)c1c(C(F)F)nn(C)c1F)C1CC1 (stereo not shown) [Example 351] | – | 100 | 100 | – | 3.50 | – | –
31 | Cc1ccsc1CCC(C)NC(=O)c1c(C(F)F)nn(C)c1F (stereo not shown) [Example 77] | – | 100 | 98 | – | 3.02 | – | –
32 | CSC1CCCCC1N(C(=O)c1c(C(F)F)nn(C)c1Cl)C1CC1 (stereo not shown) [Example 352] | – | 99 | 85 | – | 3.73 | – | –
33 | CN(CCN(C)c1cccc(Cl)c1)C(=O)c1c(C(F)F)nn(C)c1F [Example 82] | – | 100 | 100 | 95 | 3.02 | – | –
34 | CC(CNC(=O)c1c(C(F)F)nn(C)c1Cl)Cc1cc(Cl)ccc1Cl (stereo not shown) [Example 164] | 100 | – | – | 95 | 3.87 | – | –
35 | Cn1nc(C(F)F)c(C(=O)N(CCOc2c(Cl)cc(Cl)cc2Cl)C2COC2)c1F [Example 210] | 90 | – | – | 70 | 3.42 | – | –
36 | CC1CCCC(Cc2cccc(Cl)c2)C1NC(=O)c1c(C(F)F)nn(C)c1F (mixture of isomers) [Example 255] | – | 100 | 90 | – | – | – | 4.31 and 4.44 and 4.54
37 | Cc1cccc(C)c1OCC(C)N(C(=O)c1c(C(F)F)nn(C)c1Cl)C1CC1 (stereo not shown) [Example 156] | 95 | – | – | 80 | 4.15 | – | –
38 | CC(COc1ccc(Cl)cc1Cl)N(C(=O)c1c(C(F)F)nn(C)c1Cl)C1CC1 (stereo not shown) [Example 188] | 100 | – | – | 100 | 4.41 | – | –
39 | CC(CCc1ccccc1)NC(=O)c1c(C(F)F)nn(C)c1F (stereo not shown) [Example 12] | 100 | – | – | 95 | 2.88 | – | –
40 | Cn1nc(C(F)F)c(C(=O)NCCOc2cc(Cl)ccc2Cl)c1F [Example 169] | – | 100 | 84 | 90 | 3.11 | – | –
41 | CN(CCN(C)c1cccc(Cl)c1)C(=O)c1c(C(F)F)nn(C)c1Cl [Example 81] | – | 97 | 80 | 90 | 3.19 | – | –

Source: patent publication US8999956B2, “N-[(het)arylalkyl)] pyrazole(thio)carboxamides and their heterosubstituted analogues” (Bayer Intellectual Property GmbH, priority 2010, dated 2015)
